Results from US20260355196A1, “INHIBITORS AND DEGRADERS OF PIP4K PROTEIN” (Larkspur Biosciences, Inc., priority 2023, published 2026).

The compounds below were run against T1, PIP4K2C (Homo sapiens, UniProt Q8TBX8) (assay: Enzyme Binding Assay (KINOMEscan): active site-directed competition binding to an immobilized ligand). Details: 11-point dose response, duplicate, top concentration 5 micromolar; read-out: Pip4k2c Kd: IC50.
T1 sequence (Q8TBX8 1-421): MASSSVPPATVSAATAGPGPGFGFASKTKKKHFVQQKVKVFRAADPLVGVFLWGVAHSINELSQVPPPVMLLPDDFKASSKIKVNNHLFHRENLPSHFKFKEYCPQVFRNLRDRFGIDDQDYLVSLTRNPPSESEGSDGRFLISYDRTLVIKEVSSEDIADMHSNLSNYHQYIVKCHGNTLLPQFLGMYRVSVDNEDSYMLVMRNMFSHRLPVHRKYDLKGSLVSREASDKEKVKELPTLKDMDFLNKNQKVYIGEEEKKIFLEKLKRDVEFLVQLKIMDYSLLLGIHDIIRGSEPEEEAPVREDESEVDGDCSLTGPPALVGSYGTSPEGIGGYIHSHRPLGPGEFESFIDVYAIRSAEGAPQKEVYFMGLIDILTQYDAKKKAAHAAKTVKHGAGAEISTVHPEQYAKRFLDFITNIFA
Parameters: purchased Eurofins DiscoverX, San Diego, CA 87-0007-1094
Summary of the method: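 Active site-directed competition binding against an immobilized ligand. 11-point dose-response in duplicate, top concentration 5 micromolar; IC50 from a Hill equation fitted by the Levenberg-Marquardt algorithm.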

| Structure (SMILES) | IC50 [nM] |
| --- | --- |
| CC(=O)N1CCC(Nc2ncc(F)c(-c3cccc(N4C[C@H](O)CC4=O)c3)n2)CC1 [Compound 237, (4R)-1-[3-[2-[(1-acetyl-4-piperidyl)amino]-5-fluoro-pyrimidin-4-yl]phenyl]-4-hydroxy-pyrrolidin-2-one] | < 500 |
| CN1CCC2(CCC(C(=O)N3CCC(Nc4ncc(Cl)c(-c5cccc(-c6ccccc6)c5)n4)CC3)CC2)CC1 [Compound 12, (4-((4-([1,1′-biphenyl]-3-yl)-5-chloropyrimidin-2-yl)amino)piperidin-1-yl)(3-methyl-3-azaspiro[5.5]undecan-9-yl)methanone] | < 500 |
| CNC(=O)[C@H]1C[C@H](Nc2ncc(Cl)c(-c3cnn(-c4ccc(=O)[nH]c4)c3)n2)C1 [Compound 119, trans-(1r,3r)-3-((5-chloro-4-(1-(6-oxo-1,6-dihydropyridin-3-yl)-1H-pyrazol-4-yl)pyrimidin-2-yl)amino)-N-methylcyclobutane-1-carboxamide] | < 500 |
| NC(=O)[C@@H]1CCC[C@H](Nc2ncc(F)c(-c3ccnc(C4(O)CCC4)c3)n2)C1 [Compound 244, (1R,3S)-3-((5-fluoro-4-(2-(1-hydroxycyclobutyl)pyridin-4-yl)pyrimidin-2-yl)amino)cyclohexane-1-carboxamide] | < 500 |
| CC(=O)N[C@H]1CC[C@@H](Nc2ncc(Cl)c(-c3cccc(-c4ccc[nH]c4=O)c3)n2)CC1 [Compound 153, cis-N-((1s,4s)-4-((5-chloro-4-(3-(2-oxo-1,2-dihydropyridin-3-yl)phenyl)pyrimidin-2-yl)amino)cyclohexyl)acetamide] | < 500 |
| CC(=O)N[C@H]1CC[C@H](Nc2ncc(Cl)c(C3CCN(C(=O)c4ccc(F)cc4)C3)n2)CC1 (stereo partly drawn) [Compound 126, trans-N-(4-((5-chloro-4-(1-(4-fluorobenzoyl)pyrrolidin-3-yl)pyrimidin-2-yl)amino)cyclohexyl)acetamide] | 1000 to 5000 |
| CC(=O)N1CCC(Nc2ncc(F)c(N3CCOCC3)n2)CC1 [Compound 205, 1-(4-((5-fluoro-4-morpholinopyrimidin-2-yl)amino)piperidin-1-yl)ethan-1-one] | 500 to 1000 |
| CC(=O)N[C@H]1CC[C@H](Nc2ncc(F)c(-c3cccc(-n4cc(C(F)(F)F)ccc4=O)c3)n2)CC1 [Compound 234, trans-N-(4-((5-fluoro-4-(3-(2-oxo-5-(trifluoromethyl)pyridin-1 (2H)-yl)phenyl)pyrimidin-2-yl)amino)cyclohexyl)acetamide] | < 500 |
| CC(=O)N1CC[C@H](Nc2ncc(F)c(-c3cccc(-n4ccccc4=O)c3)n2)C1 [Compound 613, (S)-1-(3-(2-((1-acetylpyrrolidin-3-yl)amino)-5-fluoropyrimidin-4-yl)phenyl)pyridin-2(1H)-one] | < 500 |
| CC(=O)N[C@H]1CC[C@H](Nc2ncc(F)c(-c3cccc(-c4cc[nH]c(=O)c4)c3)n2)CC1 [Compound 188, trans-N-(4-((5-fluoro-4-(3-(2-oxo-1,2-dihydropyridin-4-yl)phenyl)pyrimidin-2-yl)amino)cyclohexyl)acetamide] | < 500 |
| CN1CCC(C(=O)N2CCC(Nc3ncc(Cl)c(-c4cccc(-c5ccccc5)c4)n3)CC2)CC1 [Compound 3, (4-((4-([1,1′-biphenyl]-3-yl)-5-chloropyrimidin-2-yl)amino)piperidin-1-yl)(1-methylpiperidin-4-yl)methanone] | < 500 |
| CC(=O)N1CCC[C@H](Nc2ncc(Cl)c(-c3cccc(C4CCCCC4)c3)n2)C1 [Compound 39, (S)-1-(3-((5-chloro-4-(3-cyclohexylphenyl)pyrimidin-2-yl)amino)piperidin-1-yl)ethan-1-one] | < 500 |
| O=C1CCC(Nc2ncc(Cl)c(-c3cccc(-c4ccccc4)c3)n2)CN1 (stereo not shown) [Compound 17, 5-((4-([1,1′-biphenyl]-3-yl)-5-chloropyrimidin-2-yl)amino)piperidin-2-one] | < 500 |
| CC(=O)N1CCC(Nc2ncc(Cl)c(-c3cc(C4CC4)[nH]n3)n2)CC1 [Compound 132, 1-(4-((5-chloro-4-(5-cyclopropyl-1H-pyrazol-3-yl)pyrimidin-2-yl)amino)piperidin-1-yl)ethan-1-one] | < 500 |
| NC(=O)[C@H]1CC[C@H](Nc2ncc(F)c(-c3cccc(N4CCC(O)CC4)c3)n2)CC1 [Compound 251, trans-4-((5-fluoro-4-(3-(4-hydroxypiperidin-1-yl)phenyl)pyrimidin-2-yl)amino)cyclohexane-1-carboxamide] | < 500 |
| CNC(=O)[C@H]1CC[C@@H](Nc2ncc(Cl)c(-c3cnn(-c4cccc(=O)[nH]4)c3)n2)CC1 [Compound 167, cis-(1s,4s)-4-((5-chloro-4-(1-(6-oxo-1,6-dihydropyridin-2-yl)-1H-pyrazol-4-yl)pyrimidin-2-yl)amino)-N-methylcyclohexane-1-carboxamide] | 500 to 1000 |

| Structure (SMILES) | IC50 [nM] |
| --- | --- |
| CC(=O)N1CCC(Nc2ncc(F)c(N3CCC[C@H](C(=O)N4CC[C@@H](O)C4)C3)n2)CC1 [Compound 216, 1-(4-((5-fluoro-4-((S)-3-((R)-3-hydroxypyrrolidine-1-carbonyl)piperidin-1-yl)pyrimidin-2-yl)amino)piperidin-1-yl)ethan-1-one] | 500 to 1000 |
| CNC(=O)[C@H]1CC[C@@H](Nc2ncc(Cl)c(-c3cc(C4CC4)[nH]n3)n2)CC1 [Compound 191, cis-(1s,4s)-4-((5-chloro-4-(5-cyclopropyl-1H-pyrazol-3-yl)pyrimidin-2-yl)amino)-N-methylcyclohexane-1-carboxamide] | < 500 |
| NC(=O)[C@@H]1CCC[C@H](Nc2ncc(F)c(-c3cccc(C4CCC4)c3)n2)C1 (relative stereo) [Compound 38, cis-3-((4-(3-cyclobutylphenyl)-5-fluoropyrimidin-2-yl)amino)cyclohexane-1-carboxamide] | < 500 |
| CNC(=O)[C@H]1C[C@H](Nc2ncc(Cl)c(-c3cnn(-c4ccc[nH]c4=O)c3)n2)C1 [Compound 166, trans-(1r,3r)-3-((5-chloro-4-(1-(2-oxo-1,2-dihydropyridin-3-yl)-1H-pyrazol-4-yl)pyrimidin-2-yl)amino)-N-methylcyclobutane-1-carboxamide] | < 500 |
| NC(=O)[C@@H]1CCC[C@H](Nc2ncc(F)c(-c3ccn(C4CCCCC4)n3)n2)C1 (relative stereo) [Compound 113, cis-3-((4-(1-cyclohexyl-1H-pyrazol-3-yl)-5-fluoropyrimidin-2-yl)amino)cyclohexane-1-carboxamide] | 1000 to 5000 |
| CC(=O)N1CCC(Nc2ncc(F)c(-c3cccc(C(=O)N4CC[C@H](O)C4)c3)n2)CC1 [Compound 212, (S)-1-(4-((5-fluoro-4-(3-(3-hydroxypyrrolidine-1-carbonyl)phenyl)pyrimidin-2-yl)amino)piperidin-1-yl)ethan-1-one] | < 500 |
| NC(=O)[C@H]1CC[C@H](Nc2ncc(F)c(-c3cccc(-n4ccccc4=O)c3)n2)CC1 [Compound 240, trans-(1r,4r)-4-((5-fluoro-4-(3-(2-oxopyridin-1 (2H)-yl)phenyl)pyrimidin-2-yl)amino)cyclohexane-1-carboxamide] | < 500 |
| NC(=O)[C@H]1CC[C@H](Nc2ncc(F)c(-c3ccnc(N4CCCCC4=O)c3)n2)CC1 [Compound 258, trans-4-((5-fluoro-4-(2-(2-oxopiperidin-1-yl)pyridin-4-yl)pyrimidin-2-yl)amino)cyclohexane-1-carboxamide] | < 500 |
| CNC(=O)[C@H]1CC[C@H](Nc2ncc(Cl)c(-c3cccc(-c4ccc[nH]c4=O)c3)n2)CC1 [Compound 155, trans-(1r,4r)-4-((5-chloro-4-(3-(2-oxo-1,2-dihydropyridin-3-yl)phenyl)pyrimidin-2-yl)amino)-N-methylcyclohexane-1-carboxamide] | < 500 |
| NC(=O)[C@H]1CC[C@H](Nc2ncc(F)c(-c3cccc(N4CCCCC4=O)n3)n2)CC1 [Compound 274, trans-4-((5-fluoro-4-(6-(2-oxopiperidin-1-yl)pyridin-2-yl)pyrimidin-2-yl)amino)cyclohexane-1-carboxamide] | < 500 |
| CC(=O)N[C@H]1CC[C@H](Nc2ncc(Cl)c(-c3cccc(-n4ccccc4=O)c3)n2)CC1 [Compound 102, trans-N-((1r,4r)-4-((5-chloro-4-(3-(2-oxopyridin-1 (2H)-yl)phenyl)pyrimidin-2-yl)amino)cyclohexyl)acetamide] | < 500 |
| CC(C)(O)c1cc(-c2nc(N[C@@H]3CCC[C@H](C(N)=O)C3)ncc2F)ccn1 (relative stereo) [Compound 177, cis-3-((5-fluoro-4-(2-(2-hydroxypropan-2-yl)pyridin-4-yl)pyrimidin-2-yl)amino)cyclohexane-1-carboxamide] | < 500 |
| NC(=O)[C@H]1CC[C@H](Nc2ncc(F)c(-c3cccc(N4CCOC4=O)c3)n2)CC1 [Compound 245, trans-4-((5-fluoro-4-(3-(2-oxooxazolidin-3-yl)phenyl)pyrimidin-2-yl)amino)cyclohexane-1-carboxamide] | < 500 |
| CNC(=O)[C@H]1C[C@H](Nc2ncc(Cl)c(-c3cccc(-c4ccc(F)cc4)n3)n2)C1 [Compound 140, trans-(1r,3r)-3-((5-chloro-4-(6-(4-fluorophenyl)pyridin-2-yl)pyrimidin-2-yl)amino)-N-methylcyclobutane-1-carboxamide] | < 500 |
| CC(=O)N1CCC(Nc2ncc(F)c(-c3ccnc(C(C)(C)O)c3)n2)CC1 [Compound 172, 1-(4-((5-fluoro-4-(2-(2-hydroxypropan-2-yl)pyridin-4-yl)pyrimidin-2-yl)amino)piperidin-1-yl)ethan-1-one] | < 500 |
